Here are results for five compounds from PMC5282889 (Bioorganic & medicinal chemistry letters, 2016).

A value given as a limit tells only on which side of the number the result lay.

In one assay the target is AChE (Homo sapiens, UniProt P22303). The assay is described as follows: biochemical. The following applies: read-out: AChE inhibition (%).
The target in a further assay is Aβ (Homo sapiens, UniProt P05067). The assay is described as follows: Aβ fibrillogenesis, Thioflavin-T. Type of assay: biochemical. The settings on record: for Aβ fibril inhibition (%): Aβ:inhibitor = 1:1 ratio at 100 μM Aβ concentration.
Aβ, sequence (P05067 672-711 limits assumed): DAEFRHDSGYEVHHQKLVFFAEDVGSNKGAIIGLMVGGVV
The next assay concerns the target BuChE (Homo sapiens, UniProt P06276). The assay is described as follows: Ellman assay, BuChE inhibition. The following applies: read-out: BuChE inhibition (%), tested at 10 μM concentration. It counts as biochemical.
A further assay concerns the target Aβ-peptide (Homo sapiens, UniProt P05067). The assay is described as follows: High resolution mass spectrometry of inhibitor-Aβ complex formation. It counts as binding. The following applies: Aβ-peptide-14 mixture (30 μM to 150 μM); 1:1 and 1:2 complexes observed.

AChE, sequence (P22303 32-614): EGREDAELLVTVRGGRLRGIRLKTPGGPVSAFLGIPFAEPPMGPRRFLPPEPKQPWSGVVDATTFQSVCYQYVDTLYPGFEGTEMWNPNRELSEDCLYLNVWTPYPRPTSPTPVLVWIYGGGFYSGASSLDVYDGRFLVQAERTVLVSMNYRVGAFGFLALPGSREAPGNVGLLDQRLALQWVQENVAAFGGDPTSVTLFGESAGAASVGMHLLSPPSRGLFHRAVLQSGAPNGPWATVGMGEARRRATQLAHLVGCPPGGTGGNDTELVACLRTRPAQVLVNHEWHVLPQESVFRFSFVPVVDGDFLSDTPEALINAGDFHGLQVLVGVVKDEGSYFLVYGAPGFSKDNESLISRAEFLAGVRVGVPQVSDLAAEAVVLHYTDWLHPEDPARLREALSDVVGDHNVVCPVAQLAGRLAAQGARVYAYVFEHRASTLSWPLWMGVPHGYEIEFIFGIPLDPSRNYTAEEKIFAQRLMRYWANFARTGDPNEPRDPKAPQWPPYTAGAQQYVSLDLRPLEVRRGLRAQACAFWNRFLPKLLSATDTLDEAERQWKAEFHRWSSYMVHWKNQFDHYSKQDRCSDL
BuChE, sequence (P06276 29-602): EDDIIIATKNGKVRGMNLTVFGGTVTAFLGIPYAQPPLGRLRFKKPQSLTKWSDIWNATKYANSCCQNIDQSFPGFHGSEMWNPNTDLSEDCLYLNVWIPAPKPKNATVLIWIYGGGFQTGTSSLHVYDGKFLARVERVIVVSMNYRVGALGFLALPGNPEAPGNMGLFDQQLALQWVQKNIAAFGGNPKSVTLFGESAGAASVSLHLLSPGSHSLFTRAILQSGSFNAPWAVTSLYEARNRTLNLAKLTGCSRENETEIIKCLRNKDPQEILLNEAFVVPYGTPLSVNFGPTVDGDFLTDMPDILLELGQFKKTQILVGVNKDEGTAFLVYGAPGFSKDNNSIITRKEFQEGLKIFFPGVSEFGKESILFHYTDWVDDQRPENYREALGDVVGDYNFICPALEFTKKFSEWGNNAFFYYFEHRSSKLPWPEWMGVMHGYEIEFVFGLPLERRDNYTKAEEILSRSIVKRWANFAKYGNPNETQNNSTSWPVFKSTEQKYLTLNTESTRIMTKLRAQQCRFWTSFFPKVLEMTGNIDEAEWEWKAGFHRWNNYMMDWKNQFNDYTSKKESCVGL
Aβ-peptide, sequence (P05067 672-711 limits assumed): as the sequence (P05067 672-711 limits assumed) above

As to `c1ccc(-c2nccc3c2[nH]c2ccccc23)cc1` [Compound 1], the inhibition at 2 µM on AChE was -12%. Turning to `COc1ccc2[nH]c3c(-c4ccc(C)cc4)nccc3c2c1` [Compound 4], at AChE, the inhibition at 2 µM was -15%. For the compound `Fc1ccc(-c2nccc3c2[nH]c2ccccc23)cc1` [Compound 6], the “Aβ fibril inhibition (%)” value on Aβ is 39%. Further, the inhibition at 10 µM on BuChE was more than 80%. As to `c1ccc2c(c1)[nH]c1c(C3CCCCC3)nccc12` [Compound 13], the “Aβ fibril inhibition (%)” value at Aβ is given as −12%. `c1ccc2c(-c3nccc4c3[nH]c3ccccc34)cccc2c1` [Compound 14]: on Aβ-peptide, the “Complex formation with Aβ peptide (HR-MS)” value was “forms a complex with the peptide”. On Aβ, this compound had an EC50 of approximately 110 µM. The inhibition at 10 µM on BuChE was more than 80%. At AChE, the inhibition at 2 µM is -11%.
